Laboratory results published in patent publication US9340577B2, “HLA binding motifs and peptides and their uses” (priority 1992, dated 2016).
Like-named read-outs stand apart in the source and are kept apart here. No end group written: not given here.

Columns and labels:
Test in all cases: biochemical
[1] = biological target: DR7 (DRB1*0701) (Homo sapiens, UniProt P01903+P01911, A100R/A102G/A103Q/D57E/D86V/E43K/F76Y/K127E/L162R/M171V/P40G/Q125H/Q99D/R33Q/R42Y/R54Q/S133A/S66F/T210M/V115G/Y107V/Y59L/Y89S); type: binding
[2] = biological target: DRB5*0101 (Homo sapiens, UniProt P01903+Q30154)
[3] = biological target: DRB1*0802 (Homo sapiens, UniProt P01903+P01911, A100R/A103L/A169T/F76Y/H45Y/I96F/K41T/L162R/M171V/P40S/Q125H/Q178H/Q39Y/Q99D/R218S/R42G/S66Y/V115G/W38E); type: binding
[4] = biological target: DRB1*0301 (Homo sapiens, UniProt P01903+P01911, A100K/A102G/A103R/A169T/F55Y/I96L/K41T/L162R/M171V/P40S/Q125H/Q178H/Q39Y/R42S/S66N/T106N/T262R/W38E/Y61H); type: binding
[5] = biological target: DRB1*1302 (Homo sapiens, UniProt P01903+P01911, A100E/A169T/K41T/L162R/M171V/P40S/Q125H/Q178H/Q39Y/Q99D/R42S/S66N/T262R/V115G/W38E/Y61H); type: binding
[6] = biological target: DR4w4 (DRB1*0401) (Homo sapiens, UniProt P01903+P01911, A100K/A169T/F76Y/I96L/K127E/L162R/M171V/N62H/P40V/Q125Y/R42H/S133A/S149N/S66Y/V115G/V209L/W38E); type: binding
[7] = biological target: DRB1*1201 (Homo sapiens, UniProt P01903+P01911, A100R/A169T/D57E/D86V/F55L/H45Y/K41T/L162R/M171V/P40S/Q125H/Q178H/Q39Y/Q99D/R42G/S66L/T262R/V114A/V67L/W38E/Y59H/Y61H/Y89S); type: binding
[8] = biological target: DRB1*0405 (Homo sapiens, UniProt P01903+P01911, A100R/A169T/D86S/F76Y/I96L/K127E/L162R/M171V/N62H/P40V/Q125Y/R42H/S133A/S149N/S66Y/V115G/V209L/W38E); type: binding
[9] = biological target: DRB1*1101 (Homo sapiens, UniProt P01903+P01911, A100R/A169T/A87E/I96F/K41T/L162R/M171V/P40S/Q125H/Q178H/Q39Y/Q99D/R42S/S66Y/T262R/V115G/W38E)
[10] = biological target: DRB1*0901 (Homo sapiens, UniProt P01903+P01911, A100R/A103E/D57H/D86V/F55Y/F60I/F76Y/I96F/K127E/L162R/M171V/P40D/Q125H/Q99R/R33Q/R42F/S133A/S66N/T210M/V115G/W38K/Y107V/Y59G/Y89S); type: binding
[11] = biological target: DRB1*1501 (Homo sapiens, UniProt P01903+P01911); type: binding
[12] = biological target: DRB4*0101 (Homo sapiens, UniProt P01903+P13762, G164S); type: binding
[13] = biological target: DR1 (DRB1*0101) (Homo sapiens, UniProt P01903+P01911, A100R/D57E/F55L/F60I/F76Y/I96L/L162R/M171V/P40L/Q125E/R42F/V115G/Y59C); type: binding

Sequence of DRB1*0301 (P01903 26-254 limits assumed, other chains not shown): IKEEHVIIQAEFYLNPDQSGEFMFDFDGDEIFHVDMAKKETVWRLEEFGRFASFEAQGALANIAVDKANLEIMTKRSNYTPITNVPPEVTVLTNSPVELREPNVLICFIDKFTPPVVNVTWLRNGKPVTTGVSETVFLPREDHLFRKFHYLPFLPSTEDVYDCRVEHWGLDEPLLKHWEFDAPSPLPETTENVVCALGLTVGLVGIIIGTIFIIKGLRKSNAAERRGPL
Sequence of DRB1*1302 (P01903 26-254 limits assumed, other chains not shown): as above
Sequence of DRB1*1101 (P01903 26-254 limits assumed, other chains not shown): as above

Compound | IC50 [1] | IC50 [2] | IC50 [3] | IC50 [4] | IC50 [5] | IC50 [6] | IC50 [7] | IC50 [8] | IC50 [9] | IC50 [10] | IC50 [11] | IC50 ([2]; Binding affinity DRB5 *0101) | IC50 [12] | IC50 [13] | IC50 ([9]; Binding affinity DRB1 *1101)
CC(C)C[C@H](NC(=O)[C@@H](NC(=O)[C@H](Cc1c[nH]c2ccccc12)NC(=O)[C@H](CC(=O)O)NC(=O)[C@H](CCC(=O)O)NC(=O)[C@@H](NC(=O)[C@H](CCCCN)NC(=O)[C@H](Cc1ccc(O)cc1)NC(=O)[C@H](CCCNC(=N)N)NC(=O)[C@H](CO)NC(=O)[C@@H](N)CCC(N)=O)[C@@H](C)O)[C@@H](C)O)C(=O)N[C@@H](CCC(N)=O)C(=O)N[C@@H](CC(=O)O)C(=O)N[C@H](C(=O)N[C@@H](CS)C(=O)O)[C@@H](C)O [Peptide 90.0179] | 6500 nM | > 20000 nM | 585 nM | 335 nM | 71 nM | 71 nM | 193 nM | 1590 nM | 2090 nM | 1970 nM | 345 nM |  |  |  | 
AFQVIELQMALETLN [Peptide 90.0024] |  |  | 4950 nM | 1280 nM | 89 nM |  | 466 nM | 2100 nM |  |  | 378 nM | > 20000 nM | 11 nM | 29 nM | 3340 nM
AQEVHNDAQVLHVLK [Peptide 90.0047] | 7800 nM |  |  | 21 nM |  | 4530 nM | > 20000 nM | > 20000 nM |  | 10200 nM | 2540 nM | > 20000 nM |  | 407 nM | 10700 nM
DRGVLILLLIRFKCG [Peptide 89.0099] | 384 nM |  | 4730 nM | 470 nM |  | 1480 nM | 711 nM | 3340 nM |  |  |  | 83 nM |  | 20 nM | 1630 nM
ETCMLIEPPKLRSSV [Peptide 89.0084] | 756 nM |  | 1350 nM | 359 nM | 481 nM |  | 708 nM | 906 nM |  | 5120 nM |  |  | 48 nM | 35 nM | 123 nM
GERLEVDTELSPRLQ [Peptide 90.0048] | > 20000 nM |  | > 20000 nM | 15 nM | > 20000 nM |  | > 20000 nM | > 20000 nM |  | > 20000 nM | > 20000 nM | > 20000 nM | > 20000 nM | > 20000 nM | > 20000 nM
GKSYFGMSLIQFLKG [Peptide 89.0075] |  |  | 1560 nM | 8830 nM |  | 456 nM | 499 nM | 1310 nM |  | 73 nM |  | 411 nM | 372 nM | 14 nM | 2960 nM
HKAIELQMALKGLAQ [Peptide 90.0004] |  |  | 38 nM | 32 nM |  | 6.7 nM | 293 nM | 3310 nM |  |  | 6580 nM | 57 nM | 1 nM | 2.1 nM | 10 nM
ISEVYGDTPEWIQRQ [Peptide 90.0035] | 6870 nM |  | > 20000 nM | 50 nM | 6.9 nM | > 20000 nM | > 20000 nM | 12800 nM |  | > 20000 nM | > 20000 nM | > 20000 nM |  | > 20000 nM | > 20000 nM
KIGMLDDATVPCWNY [Peptide 90.0040] | > 20000 nM |  | > 20000 nM | 160 nM | > 20000 nM | 490 nM | 12700 nM | > 20000 nM |  | > 20000 nM | > 20000 nM | > 20000 nM |  | 4430 nM | > 20000 nM
KTLIKPATLYAHIQC [Peptide 89.0083] | 308 nM |  | 231 nM | 1220 nM |  |  | 422 nM | 841 nM |  |  | 654 nM | 5230 nM | 51 nM | 60 nM | 35 nM
LKVLIQPYSIYAHLQ [Peptide 89.0098] | 26 nM |  | 4770 nM | 191 nM | 677 nM | 524 nM | 237 nM | 2240 nM |  | 12800 nM | 79 nM | 993 nM |  |  | 681 nM
LLEFIDDSMENSIQA [Peptide 90.0077] | > 20000 nM |  | > 20000 nM | 518 nM | > 20000 nM |  | > 20000 nM | 534 nM |  | 6680 nM | 6120 nM | > 20000 nM | 734 nM | 500 nM | 7620 nM
MNYVVWDSIYYITET [Peptide 90.0214] | 55 nM |  | > 20000 nM | 151 nM | 17 nM |  | 1140 nM | 452 nM |  | 888 nM | 3090 nM | 18300 nM |  | 2610 nM | 1620 nM
PEWIQRLTIIQHGID [Peptide 89.0031] |  |  | 187 nM | 4380 nM | 558 nM |  | 527 nM | 131 nM |  | 4510 nM | 3420 nM | 240 nM | 3.3 nM | 879 nM | 596 nM
PHAFPFDKNGNPVYE [Peptide 90.0106] | 7120 nM |  | > 20000 nM | 930 nM | 1390 nM |  | 671 nM | 7190 nM |  |  | 2790 nM | > 20000 nM |  | 517 nM | > 20000 nM
QMFLGTVKIPPTVQI [Peptide 89.0188] | 4650 nM |  | 503 nM | 160 nM |  |  | 553 nM | 616 nM |  | > 20000 nM | 208 nM | 4490 nM | 13 nM |  | 474 nM
RETIEKLLSKLLCVS [Peptide 89.0006] | 187 nM |  | 652 nM | 13000 nM | 600 nM | > 20000 nM | 523 nM | 6170 nM |  | 6480 nM | 232 nM | 7070 nM |  | 199 nM | 715 nM
TGWFEVEAVIERRTG [Peptide 90.0075] | 4930 nM |  |  | 17 nM | > 20000 nM |  | > 20000 nM | 6110 nM |  | > 20000 nM | > 20000 nM | 362 nM | > 20000 nM | 17100 nM | 
VDFIVNDNDYLTQAE [Peptide 90.0031] | 7280 nM |  | > 20000 nM | 42 nM | 204 nM |  | 17100 nM | > 20000 nM |  | > 20000 nM | > 20000 nM | > 20000 nM | 718 nM | 2830 nM | > 20000 nM
VTVFTFPHAFPFDKN [Peptide 89.0092] | 5.5 nM |  |  | > 20000 nM | > 20000 nM |  | 131 nM | 10200 nM |  | 33 nM | 63 nM | 226 nM | 1500 nM |  | 
WQLIRLENAILFTAR [Peptide 90.0211] | 89 nM |  | 1840 nM | 41 nM | 2.7 nM |  | 99 nM | 308 nM |  | 2270 nM | 44 nM | 445 nM | 20 nM | 4.1 nM | 
